Reference: PMC6155837, “Design, Synthesis, and Biological Evaluation of a New Series of Biphenyl/Bibenzyl Derivatives Functioning as Dual Inhibitors of Acetylcholinesterase and Butyrylcholinesterase” (Molecules : A Journal of Synthetic Chemistry and Natural …, 2017)
Like-named read-outs stand apart in the source and are kept apart here.

Tests used:
AChE (from rat brain) = biological target: T1, AChE (from rat brain) (Rattus norvegicus, UniProt P37136); assay: biochemical; type: biochemical
T1 construct: rat AChE purified from the rat brain; from tissue; host or cells: rat brain
T1 sequence (P37136 32-614): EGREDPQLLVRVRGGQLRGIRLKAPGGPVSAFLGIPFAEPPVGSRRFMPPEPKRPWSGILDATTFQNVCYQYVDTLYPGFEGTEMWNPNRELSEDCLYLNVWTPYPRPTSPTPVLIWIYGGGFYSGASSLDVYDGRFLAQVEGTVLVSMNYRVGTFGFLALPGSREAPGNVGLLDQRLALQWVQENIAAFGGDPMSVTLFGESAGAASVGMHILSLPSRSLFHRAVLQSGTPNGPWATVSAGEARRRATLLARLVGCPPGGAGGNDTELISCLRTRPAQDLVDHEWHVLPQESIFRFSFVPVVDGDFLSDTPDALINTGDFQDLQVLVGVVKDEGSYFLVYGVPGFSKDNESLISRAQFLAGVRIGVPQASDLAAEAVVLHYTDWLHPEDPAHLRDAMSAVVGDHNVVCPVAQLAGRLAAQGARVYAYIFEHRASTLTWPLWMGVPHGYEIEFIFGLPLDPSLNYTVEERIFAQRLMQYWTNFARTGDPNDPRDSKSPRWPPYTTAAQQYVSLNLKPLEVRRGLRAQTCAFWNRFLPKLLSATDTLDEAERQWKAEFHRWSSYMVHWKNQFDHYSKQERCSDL
Description: (§1) All of the assay of acetylcholinesterase (AChE) and butyrylcholinesterase (BuChE) were performed according to the method described by Ellman et al. using the rat AChE purified from the rat brain and human BuChE purified by human serum. In an enzymatic reaction medium contained different concentration of tested compounds and AChE suspended in the phosphate buffer solution at pH 7.2. After 30 min at room temperature, acetylthiocholine iodide and 5.5′-dithiobis-2-nitrobenzoic acid (DNTB) were added and the reaction mixture incubated at 37 °C for 60 min. […] The parallel control experiment was carried without tested compounds in the reaction mixture. For BuChE inhibitory assay, the procedure described above was followed except for the use of enzyme and substrate, instead of which butyrylcholinesterase and butyrylthiocholine chloride were used, respectively. Assays were done with a blank containing all compounds except AChE or BuChE in order to account for nonenzymatic reactions. Each inhibitory test was conducted in triplicate. […] Each concentration was assayed in triplicate and data were expressed as the mean ± SEM.

BuChE (from human serum) = biological target: T2, BuChE (from human serum) (Homo sapiens, UniProt P06276); assay: biochemical
T2 construct: human BuChE purified by human serum; from tissue; host or cells: human serum
T2 sequence (P06276 29-602): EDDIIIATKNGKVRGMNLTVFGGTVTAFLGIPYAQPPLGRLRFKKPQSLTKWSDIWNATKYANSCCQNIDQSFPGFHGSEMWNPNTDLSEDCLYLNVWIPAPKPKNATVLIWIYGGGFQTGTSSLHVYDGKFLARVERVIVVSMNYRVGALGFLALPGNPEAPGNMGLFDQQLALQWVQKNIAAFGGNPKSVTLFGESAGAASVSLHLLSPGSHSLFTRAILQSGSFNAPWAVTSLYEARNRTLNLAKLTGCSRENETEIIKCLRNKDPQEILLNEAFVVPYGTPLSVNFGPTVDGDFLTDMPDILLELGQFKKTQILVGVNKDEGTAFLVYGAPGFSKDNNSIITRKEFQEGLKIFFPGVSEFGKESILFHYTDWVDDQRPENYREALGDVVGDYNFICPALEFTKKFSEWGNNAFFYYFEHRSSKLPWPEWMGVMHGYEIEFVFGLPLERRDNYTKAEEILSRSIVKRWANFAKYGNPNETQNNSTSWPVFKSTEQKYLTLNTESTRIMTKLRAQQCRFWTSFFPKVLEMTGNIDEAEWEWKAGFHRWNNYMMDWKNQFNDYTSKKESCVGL
Description: as §1

[1] = AChE from rat brain, footnote d: inactive up to 100 µM/L, read-out: IC50 µM ± SEM AChE
[2] = BuChE from human serum, means ± SEM of three experiments, read-out: IC50 µM ± SEM BuChE
[3] = AChE from rat brain, means ± SEM of three experiments, read-out: IC50 µM ± SEM AChE

Row | SMILES | IC50 (AChE (from rat brain)) | IC50 (BuChE (from human serum)) | other results
1 | CN(C)CCC(=O)c1ccc(-c2ccc(C(=O)CCN(C)C)cc2)cc1 [Compound 1, 4,4′-bi-(β-dimethylamino-propinoyl)-biphenyl] | 0.75 µM | 0.19 µM | 
2 | CN(C)CC(=O)c1ccc(-c2ccc(C(=O)CN(C)C)cc2)cc1 [Compound 12, 1,1′-([1,1′-Biphenyl]-4,4′-diyl)bis(2-(dimethylamino)ethanone)] |  |  | IC50 (AChE (from rat brain); [1]): > 100 µM; IC50 (BuChE (from human serum); [2]): 91.7 ± 15.7 µM
3 | O=C(CN1CCCCC1)c1ccc(-c2ccc(C(=O)CN3CCCCC3)cc2)cc1 [Compound 13, 1,1′-([1,1′-Biphenyl]-4,4′-diyl)bis(2-(piperidin-1-yl)ethanone)] |  | 71.7 ± 3.01 µM | IC50 (AChE (from rat brain); [1]): > 100 µM
4 | O=C(CN1CCOCC1)c1ccc(-c2ccc(C(=O)CN3CCOCC3)cc2)cc1 [Compound 14, 1,1′-([1,1′-Biphenyl]-4,4′-diyl)bis(2-morpholinoethanone)] | > 100 µM |  | IC50 (BuChE (from human serum); [2]): 1.44 ± 0.23 µM
5 | CCN(CC)CCC(=O)c1ccc(-c2ccc(C(=O)CCN(CC)CC)cc2)cc1 [Compound 15, 4,4′-Bis(β-diethylamino-propinoyl)-biphenyl] | 1.18 ± 0.29 µM | 0.74 ± 0.09 µM | 
6 | CCCN(CCC)CCC(=O)c1ccc(-c2ccc(C(=O)CCN(CCC)CCC)cc2)cc1 [Compound 16, 4,4′-Bis(β-dipropylamino-propinoyl)-biphenyl] | 0.88 ± 0.17 µM | 2.83 ± 0.5 µM | 
7 | O=C(CCN1CCC1)c1ccc(-c2ccc(C(=O)CCN3CCC3)cc2)cc1 [Compound 17, 4,4′-Bis(β-azetidin-propinoyl)-biphenyl] | 0.71 ± 0.06 µM | 2.39 ± 0.75 µM | 
8 | O=C(CCN1CCCC1)c1ccc(-c2ccc(C(=O)CCN3CCCC3)cc2)cc1 [Compound 18, 4,4′-Bis(β-pyrrolidin-propinoyl)-biphenyl] | 0.33 ± 0.06 µM | 1.16 ± 0.09 µM | 
9 | O=C(CCN1CCCCC1)c1ccc(-c2ccc(C(=O)CCN3CCCCC3)cc2)cc1 [Compound 19] | 0.096 ± 0.006 µM | 1.25 ± 0.15 µM | fold more potent than the lead compound (1) for inhibiting AChE (AChE (from rat brain); relative to compound 1): eight
10 | O=C(CCN1CCOCC1)c1ccc(-c2ccc(C(=O)CCN3CCOCC3)cc2)cc1 [Compound 20] | 0.97 ± 0.08 µM | 0.72 ± 0.1 µM | 
11 | O=C(CCN1CCCCCC1)c1ccc(-c2ccc(C(=O)CCN3CCCCCC3)cc2)cc1 [Compound 21, 4,4′-Bis(β-azepan-propinoyl)-biphenyl] | 1.43 ± 0.33 µM | 1.94 ± 0.07 µM | 
12 | CN1CCN(CCC(=O)c2ccc(-c3ccc(C(=O)CCN4CCN(C)CC4)cc3)cc2)CC1 [Compound 22, 4,4′-Bis(β-4-methylpiperazin-propinoyl)-biphenyl] | 1.61 ± 0.38 µM | 13.8 ± 0.81 µM | 
13 | O=C(CCCN1CCCCC1)c1ccc(-c2ccc(C(=O)CCCN3CCCCC3)cc2)cc1 [Compound 23, 1,1′-([1,1′-Biphenyl]-4,4′-diyl)bis(4-(piperidin-1-yl)butan-1-one)] | 1.32 ± 0.43 µM | 5.9 ± 0.4 µM | 
14 | O=C(CCCCN1CCCCC1)c1ccc(-c2ccc(C(=O)CCCCN3CCCCC3)cc2)cc1 [Compound 24, 1,1′-([1,1′-Biphenyl]-4,4′-diyl)bis(5-(piperidin-1-yl)pentan-1-one)] | 0.82 ± 0.16 µM | 2.65 ± 0.11 µM | 
15 | CN(C)CC(=O)c1ccc(CCc2ccc(C(=O)CN(C)C)cc2)cc1 [Compound 25, 1,1′-(Ethane-1,2-diylbis(4,1-phenylene))bis(2-(dimethylamino)ethanone)] | 62.3 ± 14.5 µM | 9.11 ± 2.55 µM | 
16 | O=C(CN1CCCCC1)c1ccc(CCc2ccc(C(=O)CN3CCCCC3)cc2)cc1 [Compound 26, 1,1′-(Ethane-1,2-diylbis(4,1-phenylene))bis(2-(piperidin-1-yl)ethanone)] |  | 20.7 ± 5.44 µM | IC50 (AChE (from rat brain); [3]): 74.5 ± 8.5 µM
17 | CN1CCN(CC(=O)c2ccc(CCc3ccc(C(=O)CN4CCN(C)CC4)cc3)cc2)CC1 [Compound 27, 1,1′-(Ethane-1,2-diylbis(4,1-phenylene))bis(2-(4-methylpiperazin-1-yl)ethanone)] | 74.1 ± 11.5 µM | 66.5 ± 17 µM | 
18 | O=C(CN1CCOCC1)c1ccc(CCc2ccc(C(=O)CN3CCOCC3)cc2)cc1 [Compound 28] |  |  | IC50 (AChE (from rat brain); [1]): > 100 µM; IC50 (BuChE (from human serum); [2]): 6.3 ± 1.6 µM
19 | CN(C)CCC(=O)c1ccc(CCc2ccc(C(=O)CCN(C)C)cc2)cc1 [Compound 29, 1,1′-(Ethane-1,2-diylbis(4,1-phenylene))bis(3-(dimethylamino)propan-1-one)] | 2.62 ± 0.63 µM | 1.21 ± 0.22 µM | 
20 | O=C(CCN1CCCCC1)c1ccc(CCc2ccc(C(=O)CCN3CCCCC3)cc2)cc1 [Compound 30, 1,1′-(Ethane-1,2-diylbis(4,1-phenylene))bis(3-(piperidin-1-yl)propan-1-one)] | 0.5 ± 0.06 µM |  | IC50 (BuChE (from human serum); [2]): 3.14 ± 0.24 µM
21 | O=C(CCN1CCOCC1)c1ccc(CCc2ccc(C(=O)CCN3CCOCC3)cc2)cc1 [Compound 31, 1,1′-(Ethane-1,2-diylbis(4,1-phenylene))bis(3-morpholinopropan-1-one)] | 3.53 ± 0.79 µM | 6.38 ± 1.26 µM | 
22 | O=C(CCCN1CCCCC1)c1ccc(CCc2ccc(C(=O)CCCN3CCCCC3)cc2)cc1 [Compound 32, 1,1′-(Ethane-1,2-diylbis(4,1-phenylene))bis(4-(piperidin-1-yl)butan-1-one)] | 3.67 ± 0.92 µM | 19.2 ± 4.78 µM | 
23 | O=C(CCCCN1CCCCC1)c1ccc(CCc2ccc(C(=O)CCCCN3CCCCC3)cc2)cc1 [Compound 33, 1,1′-(Ethane-1,2-diylbis(4,1-phenylene))bis(5-(piperidin-1-yl)pentan-1-one)] | 0.19 ± 0.08 µM | 1.64 ± 0.27 µM | 
24 | OC(CCN1CCCCC1)c1ccc(-c2ccc(C(O)CCN3CCCCC3)cc2)cc1 (centres unmarked) [Compound 34, 1,1′-([1,1′-Biphenyl]-4,4′-diyl)bis(3-(piperidin-1-yl)propan-1-ol)] | 31.7 ± 10.2 µM | 13.8 ± 1.59 µM | 
25 | OC(CCN1CCOCC1)c1ccc(-c2ccc(C(O)CCN3CCOCC3)cc2)cc1 (centres unmarked) [Compound 35, 1,1′-([1,1′-Biphenyl]-4,4′-diyl)bis(3-morpholinopropan-1-ol)] |  |  | IC50 (AChE (from rat brain); [1]): > 100 µM; IC50 (BuChE (from human serum); BuChE from human serum, footnote d: inactive up to 100 µM/L, read-out: IC50 µM ± SEM BuChE): > 100 µM
26 | OC(CCN1CCCCC1)c1ccc(CCc2ccc(C(O)CCN3CCCCC3)cc2)cc1 (centres unmarked) [Compound 36, 1,1′-(Ethane-1,2-diylbis(4,1-phenylene))bis(3-(piperidin-1-yl)propan-1-ol)] |  |  | IC50 (AChE (from rat brain); [3]): 74.9 ± 35.6 µM; IC50 (BuChE (from human serum); [2]): 25.9 ± 6.81 µM
